Where a name gives a salt, the structure may show the parent alone.
Test system: eNOS promoter
Assay: Activation of eNOS transcription (eNOS promoter firefly luciferase reporter gene assay)
Format: cell-based
Conditions: human endothelial cell line stably transfected with eNOS promoter-luciferase construct; 18 h incubation; determined graphically; read-out: EC50 values of transcription induction ratios (TIR)
Protocol: Activation of eNOS transcription was measured as described in detail by Li et al., “Activation of protein kinase C alpha and/or epsilon enhances transcription of the human endothelial nitric oxide synthase gene”, Mol. Pharmacol. 53 (1998) 630. Briefly, a 3.5 kB long fragment 5′ of the starting codon of the eNOS gene was cloned, sequenced and cloned in firefly luciferase expression plasmids to monitor activation of the eNOS promoter by reporter gene activity. A human endothelial cell line stable transfected and expressing this promoter-reporter construct was used for compound testing. Cells were incubated for 18 h with the compounds.
All compounds were dissolved in sterile dimethyl sulfoxide (DMSO). A final concentration of 0.5% DMSO in complete medium was allowed. Induction of reporter gene expression in these cells was measured using a standard luciferase assay system (Promega, Cat. No. E150) according to the manufacturer's instructions. Luciferase induction in cells incubated with compounds were compared to those incubated with solvent alone. The ratio of both activities (transcription induction ratio, TIR) was plotted as a function of compound concentration. […] EC50 values of transcription induction ratios as a function of compound concentration were determined graphically.

Row | EC50 [nM] | Compound
1 | 500 to 5000 | O=C([C@@H]1C[C@H]1c1ccc(-c2ccc(F)cc2)nc1)N1CCCC1 (relative stereo) [Example 46, {trans-2-[6-(4-fluoro-phenyl)-pyridin-3-yl]-cyclopropyl}-(pyrrolidin-1-yl)-methanone trifluoroacetic acid salt]
2 | < 500 | CN(C)C(=O)[C@@H]1C[C@H]1c1ccc(-c2ccccc2F)nc1 (relative stereo) [Example 49, trans-2-[6-(2-Fluoro-phenyl)-pyridin-3-yl]-cyclopropanecarboxylic acid dimethylamide trifluoroacetic acid salt]
